# ChEMBL document CHEMBL5729561, “Compounds and uses thereof” (2023)
# Test: On day 0 cells were seeded in 30 μL media into each well of 384-well cell culture plates. The seeding density was 8000 cells/well. On day 1, cells were treated with 30 nL DMSO or 30 nL of 3-fold serially DMSO-diluted compounds (10 points in duplicates with 1 μM as final top dose). Subsequently plates were incubated for 6 hours in a standard tissue culture incubator and equilibrated at room temperature for 15 minutes. Nanoluciferase activity was measured by adding 15 μL of freshly prepared Nano-Glo Luciferase Assay Reagent (Promega N1130), shaking the plates for 10 minutes and reading the bioluminescence using an EnVision reader.
# Format: cell-based
row,SMILES,IC50
1,COc1cc(-c2cn(C)c(=O)c3cnccc23)cc(OC)c1CN(C)C1CCC2CN(C(=O)CCOCCOc3cccc4c3C(=O)N(C3CCC(=O)NC3=O)C4=O)CC21 (stereo not drawn),in the range around 55 nM
2,COc1cc(-c2cn(C)c(=O)c3cnccc23)cc(OC)c1CN(C)CC1CC2(CCN(C(=O)CCOCCOc3cccc4c3C(=O)N(C3CCC(=O)NC3=O)C4=O)CC2)C1 (stereo not drawn),in the range around 55 nM
3,COc1cc(-c2cn(C)c(=O)c3cnccc23)cc(OC)c1CN1CC(C(=O)NCCCCCCCCNC(=O)COc2cccc3c2C(=O)N(C2CCC(=O)NC2=O)C3=O)C1 (stereo not drawn),in the range around 55 nM
4,COc1cc(-c2cn(C)c(=O)c3cnccc23)cc(OC)c1CN1CC(S(=O)(=O)NCCOCCOCCNc2cccc3c2C(=O)N(C2CCC(=O)NC2=O)C3=O)C1 (stereo not drawn),< 10 nM
5,COc1cc(-c2cn(C)c(=O)c3cnccc23)cc(OC)c1CN(C)C1CCC12CCN(C(=O)CCOCCOc1cccc3c1C(=O)N(C1CCC(=O)NC1=O)C3=O)CC2 (stereo not drawn),in the range around 55 nM
6,COc1cc(-c2cn(C)c(=O)c3cnccc23)cc(OC)c1CN1CCC(COC2CCN(C(=O)CCOCCOc3cccc4c3C(=O)N(C3CCC(=O)NC3=O)C4=O)C2)CC1 (stereo not drawn),in the range around 55 nM
7,COc1cc(-c2cn(C)c(=O)c3cnccc23)cc(OC)c1CN1CCC2(CCN(C(=O)CCOCCOc3ccc4c(c3)C(=O)N(C3CCC(=O)NC3=O)C4=O)CC2)C1 (stereo not drawn),in the range around 55 nM
8,COc1cc(-c2cn(C)c(=O)c3cnccc23)cc(OC)c1CN(C)Cc1cn(CCCCOc2ccc3c(c2)C(=O)N(C2CCC(=O)NC2=O)C3=O)nn1 (stereo not drawn),in the range around 55 nM
9,COc1cc(-c2cn(C)c(=O)c3cnccc23)cc(OC)c1CN1CC(NC(=O)CCCCCOc2cccc3c2C(=O)N(C2CCC(=O)NC2=O)C3=O)C1 (stereo not drawn),in the range around 55 nM
10,COc1cc(-c2cn(C)c(=O)c3cnccc23)cc(OC)c1CN(C)C12CC(C(=O)NCCCCCNc3cccc4c3C(=O)N(C3CCC(=O)NC3=O)C4=O)(C1)C2 (stereo not drawn),< 10 nM
11,COc1cc(-c2cn(C)c(=O)c3cnccc23)cc(OC)c1CN1CC[C@H]1C(=O)NCCN(C)CCNc1cccc2c1C(=O)N(C1CCC(=O)NC1=O)C2=O (stereo partly drawn),in the range around 550 nM
12,COc1cc(-c2cn(C)c(=O)c3cnccc23)cc(OC)c1CN1CC(S(=O)(=O)NCCCCCCCCNc2cccc3c2C(=O)N(C2CCC(=O)NC2=O)C3=O)C1 (stereo not drawn),< 10 nM
13,COc1cc(-c2cn(C)c(=O)c3cnccc23)cc(OC)c1CN1CCN(C(=O)COc2cccc3c2C(=O)N(C2CCC(=O)NC2=O)C3=O)CC1 (stereo not drawn),< 10 nM
14,COc1cc(-c2cn(C)c(=O)c3cnccc23)cc(OC)c1CN(C)CC1CC2(CCN(C(=O)CCOCCOc3ccc4c(c3)C(=O)N(C3CCC(=O)NC3=O)C4=O)CC2)O1 (stereo not drawn),< 10 nM
15,COc1cc(-c2cn(C)c(=O)c3cnccc23)cc(OC)c1CN(C)CCc1cn(CCCOc2ccc3c(c2)C(=O)N(C2CCC(=O)NC2=O)C3O)nn1 (stereo not drawn),in the range around 550 nM
16,COc1cc(-c2cn(C)c(=O)c3cnccc23)cc(OC)c1CN1CCC12CN(C(=O)CCOCCOc1cccc3c1C(=O)N(C1CCC(=O)NC1=O)C3=O)C2 (stereo not drawn),in the range around 550 nM
17,COc1cc(-c2cn(C)c(=O)c3cnccc23)cc(OC)c1CN1CC(S(=O)(=O)NCCCCCNc2ccc3c(c2)C(=O)N(C2CCC(=O)NC2=O)C3=O)C1 (stereo not drawn),< 10 nM
18,COc1cc(-c2cn(C)c(=O)c3cnccc23)cc(OC)c1CN1CC(OCc2cn(-c3ccc4c(c3)C(=O)N(C3CCC(=O)NC3=O)C4=O)nn2)C1 (stereo not drawn),in the range around 55 nM
19,COc1cc(-c2cn(C)c(=O)c3cnccc23)cc(OC)c1CN1CC(C(=O)N(C)CCCCCCCCNc2cccc3c2C(=O)N(C2CCC(=O)NC2=O)C3=O)C1 (stereo not drawn),< 10 nM
20,COc1cc(-c2cn(C)c(=O)c3cnccc23)cc(OC)c1CN(C)C(=O)CCCCN1CCOC2(CCN(c3ccc4c(c3)C(=O)N(C3CCC(=O)NC3=O)C4=O)CC2)C1 (stereo not drawn),< 10 nM
21,COc1cc(-c2cn(C)c(=O)c3cnccc23)cc(OC)c1CN1CCC(OCc2cn(-c3ccc4c(c3)C(=O)N(C3CCC(=O)NC3=O)C4=O)nn2)CC1 (stereo not drawn),in the range around 55 nM
22,COc1cc(-c2cn(C)c(=O)c3cnccc23)cc(OC)c1CNCCCN1CC(Oc2ccc3c(c2)C(=O)N(C2CCC(=O)NC2=O)C3=O)C1 (stereo not drawn),in the range around 55 nM
23,COc1cc(-c2cn(C)c(=O)c3cnccc23)cc(OC)c1CN1CCC(OCc2cn(CCCOc3ccc4c(c3)C(=O)N(C3CCC(=O)NC3=O)C4=O)nn2)C1 (stereo not drawn),in the range around 550 nM
24,COc1cc(-c2cn(C)c(=O)c3cnccc23)cc(OC)c1CN(C)CC1CC2(CCN(C(=O)CCOCCOc3ccc4c(c3)C(=O)N(C3CCC(=O)NC3=O)C4=O)CC2)CO1 (stereo not drawn),< 10 nM
25,COc1cc(-c2cn(C)c(=O)c3cnccc23)cc(OC)c1CN1CC(S(=O)(=O)NCCCCCCNc2ccc3c(c2)C(=O)N(C2CCC(=O)NC2=O)C3=O)C1 (stereo not drawn),< 10 nM
26,COc1cc(-c2cn(C)c(=O)c3cnccc23)cc(OC)c1CN(C)CC(=O)NCCCCN1CCOC2(CCN(c3ccc4c(c3)C(=O)N(C3CCC(=O)NC3=O)C4=O)CC2)C1 (stereo not drawn),< 10 nM
27,COc1cc(-c2cn(C)c(=O)c3cnccc23)cc(OC)c1CN1CCC2(CC1)CN(C(=O)COc1cccc3c1C(=O)N(C1CCC(=O)NC1=O)C3=O)CCO2 (stereo not drawn),in the range around 55 nM
28,COc1cc(-c2cn(C)c(=O)c3cnccc23)cc(OC)c1CN1CC(C(=O)NCCCCCNc2cccc3c2C(=O)N(C2CCC(=O)NC2=O)C3=O)C1 (stereo not drawn),< 10 nM
